Columns and labels:
[1] = tested on: rice (Oryza sative, variety: Koshihikari); experiment: Paddy field treatment (Test Example 3), crop; type: in vivo, Oryza sativa; details: transplanted rice two-leaf period, water surface treatment 10th day after transplantation, 1 kg active ingredient per hectare, evaluated 21st day, lower index = higher safety
Protocol: (§1) In the above evaluation criteria, the term “herbicidal effect” means evaluation to the objective weeds, and a higher index of the evaluation criteria means higher herbicidal effect on the objective weeds. On the other hand, a lower index of the evaluation criteria for the crops means higher safety to the crops. A plastic pot of 130 cm^2 was filled with paddy soil, and soil puddling was carried out to adjust the submerged depth to 4 cm. Then, seeds of Echinochloa crusgalli, Monochoria vaginalis, Ammannia multiflora and Scirpus juncoides were sowed, and rice (Oryza […], variety: Koshihikari) of two-leaf period was transplanted by 2 rice plants of 1 stub per pot at a depth of 3 cm. On the 10th day after the transplantation, a wettable powder composition was prepared in accordance with Formulation Example 1, diluted with water in such an amount that the amount of the active ingredient became 1 kg per hectare, and then dropped to diffuse on the water surface. On the 21st day after the dropping, observation and evaluation were carried out according to the aforesaid criteria.

[2] = tested on: wheat (Triticum aestivum); experiment: Upland soil treatment (Test Example 2), crop; type: in vivo; details: soil surface treatment next day after sowing, 1 kg active ingredient per hectare, evaluated 21st day, lower index = higher safety
Source text: (§2) In the above evaluation criteria, the term “herbicidal effect” means evaluation to the objective weeds, and a higher index of the evaluation criteria means higher herbicidal effect on the objective weeds. On the other hand, a lower index of the evaluation criteria for the crops means higher safety to the crops. A plastic pot of 130 cm^2 was filled with upland soil. Then, seeds of weeds, namely, Setaria viridis, Digitaria adscendens, Chenopodium album and Stellaria media, and seeds of crops, namely, soybean (Glycine max) and wheat (Triticum aestivum), were sowed and covered with soil of about 1 cm thick. On the next day after the sowing, a wettable powder composition was prepared in accordance with Formulation Example 1, diluted with water in such an amount that the amount of the active ingredient became 1 kg per hectare, and then uniformly applied to the soil surface. On the 21st day after the application, observation and evaluation were carried out according to the aforesaid criteria.

soybean (Glycine max) [3] = experiment: Upland soil treatment (Test Example 2), crop; type: in vivo; details: soil surface treatment next day after sowing, 1 kg active ingredient per hectare, evaluated 21st day, lower index = higher safety
Source text: as §2

Digitaria adscendens [4] = experiment: Upland field foliage treatment (Test Example 1); type: in vivo; details: foliage treatment 14th day after sowing, wettable powder, 1 kg active ingredient per hectare, evaluated 21st day after application
Source text: (§3) In the above evaluation criteria, the term “herbicidal effect” means evaluation to the objective weeds, and a higher index of the evaluation criteria means higher herbicidal effect on the objective weeds. On the other hand, a lower index of the evaluation criteria for the crops means higher safety to the crops. A plastic pot of 130 cm^2 was filled with upland soil. Then, seeds of weeds, namely, Setaria viridis, Digitaria adscendens, Chenopodium album and Stellaria media, and seeds of crops, namely, soybean (Glycine max) and wheat (Triticum aestivum), were sowed and covered with soil of about 1 cm thick. On the 14th day after the sowing, a wettable powder composition was prepared in accordance with Formulation Example 1, diluted with water in such an amount that the amount of the active ingredient became 1 kg per hectare, and then uniformly applied to the plant leaf surfaces. On the 21st day after the application, observation and evaluation were carried out according to the aforesaid criteria.

Stellaria media [5] = experiment: Upland field foliage treatment (Test Example 1); type: in vivo; details: foliage treatment 14th day after sowing, wettable powder, 1 kg active ingredient per hectare, evaluated 21st day after application
Source text: as §3

Setaria viridis [6] = experiment: Upland field foliage treatment (Test Example 1); type: in vivo; details: foliage treatment 14th day after sowing, wettable powder, 1 kg active ingredient per hectare, evaluated 21st day after application
Source text: as §3

Chenopodium album [7] = experiment: Upland field foliage treatment (Test Example 1); type: in vivo; details: foliage treatment 14th day after sowing, wettable powder, 1 kg active ingredient per hectare, evaluated 21st day after application
Source text: as §3

Digitaria adscendens [8] = experiment: Upland soil treatment (Test Example 2); type: in vivo; details: soil surface treatment next day after sowing, wettable powder, 1 kg active ingredient per hectare, evaluated 21st day after application
Source text: as §2

Stellaria media [9] = experiment: Upland soil treatment (Test Example 2); type: in vivo; details: soil surface treatment next day after sowing, wettable powder, 1 kg active ingredient per hectare, evaluated 21st day after application
Source text: as §2

Setaria viridis [10] = experiment: Upland soil treatment (Test Example 2); type: in vivo; details: soil surface treatment next day after sowing, wettable powder, 1 kg active ingredient per hectare, evaluated 21st day after application
Source text: as §2

Chenopodium album [11] = experiment: Upland soil treatment (Test Example 2); type: in vivo; details: soil surface treatment next day after sowing, wettable powder, 1 kg active ingredient per hectare, evaluated 21st day after application
Source text: as §2

[12] = tested on: wheat (Triticum aestivum); experiment: Upland field foliage treatment (Test Example 1), crop; type: in vivo; details: foliage treatment 14th day after sowing, 1 kg active ingredient per hectare, evaluated 21st day, lower index = higher safety
Source text: as §3

soybean (Glycine max) [13] = experiment: as above; type: in vivo; details: foliage treatment 14th day after sowing, 1 kg active ingredient per hectare, evaluated 21st day, lower index = higher safety
Source text: as §3

Echinochloa spp. = experiment: Paddy field treatment (Test Example 3); type: in vivo, Echinochloa crusgalli; details: paddy pot, submerged 4 cm, dropped on water surface 10th day after transplantation, 1 kg active ingredient per hectare, evaluated 21st day
Protocol: as §1

Monochoria vaginalis = experiment: Paddy field treatment (Test Example 3); type: in vivo; details: paddy pot, submerged 4 cm, dropped on water surface 10th day after transplantation, 1 kg active ingredient per hectare, evaluated 21st day
Protocol: as §1

Scirpus juncoides = experiment: Paddy field treatment (Test Example 3); type: in vivo; details: paddy pot, submerged 4 cm, dropped on water surface 10th day after transplantation, 1 kg active ingredient per hectare, evaluated 21st day
Protocol: as §1

Ammannia multiflora = experiment: Paddy field treatment (Test Example 3); type: in vivo; details: paddy pot, submerged 4 cm, dropped on water surface 10th day after transplantation, 1 kg active ingredient per hectare, evaluated 21st day
Protocol: as §1

SMILES | Herbicidal activity Oryza sativa [1] | Herbicidal activity Triticum aestivum [2] | Herbicidal activity Glycine max (soybean (Glycine max) [3]) | Herbicidal activity Digitaria adscendens (Digitaria adscendens [4]) | Herbicidal activity Stellaria media (Stellaria media [5]) | Herbicidal activity Setaria viridis (Setaria viridis [6]) | Herbicidal activity Chenopodium album (Chenopodium album [7]) | Herbicidal activity Digitaria adscendens (Digitaria adscendens [8]) | Herbicidal activity Stellaria media (Stellaria media [9]) | Herbicidal activity Setaria viridis (Setaria viridis [10]) | Herbicidal activity Chenopodium album (Chenopodium album [11]) | Herbicidal activity Triticum aestivum [12] | Herbicidal activity Glycine max (soybean (Glycine max) [13]) | Herbicidal activity Echinochloa spp. (Echinochloa spp.) | Herbicidal activity Monochoria vaginalis (Monochoria vaginalis) | Herbicidal activity Scirpus juncoides (Scirpus juncoides) | Herbicidal activity Ammannia multiflora (Ammannia multiflora)
COC=C(Cn1nc(-c2c(Cl)cccc2Cl)cc1C)C(=O)OC [Compound 9] | 0 (herbicidal effect of not less than 0% by weight and less than 10% by weight) | 0 (herbicidal effect of not less than 0% by weight and less than 10% by weight) | 0 (herbicidal effect of not less than 0% by weight and less than 10% by weight) | 4 (herbicidal effect of not less than 70% by weight and less than 90% by weight) | 4 (herbicidal effect of not less than 70% by weight and less than 90% by weight) | 4 (herbicidal effect of not less than 70% by weight and less than 90% by weight) | 4 (herbicidal effect of not less than 70% by weight and less than 90% by weight) | 4 (herbicidal effect of not less than 70% by weight and less than 90% by weight) | 4 (herbicidal effect of not less than 70% by weight and less than 90% by weight) | 4 (herbicidal effect of not less than 70% by weight and less than 90% by weight) | 5 (herbicidal effect of not less than 90% by weight) | 0 (herbicidal effect of not less than 0% by weight and less than 10% by weight) | 0 (herbicidal effect of not less than 0% by weight and less than 10% by weight) | 3 (herbicidal effect of not less than 50% by weight and less than 70% by weight) | 3 (herbicidal effect of not less than 50% by weight and less than 70% by weight) | 3 (herbicidal effect of not less than 50% by weight and less than 70% by weight) | 3 (herbicidal effect of not less than 50% by weight and less than 70% by weight)
COC=C(Cn1nc(-c2ccccc2)c(Cl)c1SC)C(=O)OC [Compound 41] | 0 (herbicidal effect of not less than 0% by weight and less than 10% by weight) | 0 (herbicidal effect of not less than 0% by weight and less than 10% by weight) | 0 (herbicidal effect of not less than 0% by weight and less than 10% by weight) | 4 (herbicidal effect of not less than 70% by weight and less than 90% by weight) | 4 (herbicidal effect of not less than 70% by weight and less than 90% by weight) | 4 (herbicidal effect of not less than 70% by weight and less than 90% by weight) | 4 (herbicidal effect of not less than 70% by weight and less than 90% by weight) | 4 (herbicidal effect of not less than 70% by weight and less than 90% by weight) | 4 (herbicidal effect of not less than 70% by weight and less than 90% by weight) | 4 (herbicidal effect of not less than 70% by weight and less than 90% by weight) | 4 (herbicidal effect of not less than 70% by weight and less than 90% by weight) | 0 (herbicidal effect of not less than 0% by weight and less than 10% by weight) | 0 (herbicidal effect of not less than 0% by weight and less than 10% by weight) | 4 (herbicidal effect of not less than 70% by weight and less than 90% by weight) | 3 (herbicidal effect of not less than 50% by weight and less than 70% by weight) | 3 (herbicidal effect of not less than 50% by weight and less than 70% by weight) | 3 (herbicidal effect of not less than 50% by weight and less than 70% by weight)
COC=C(Cn1nc(-c2ccc(Cl)c(Cl)c2)cc1C)C(=O)OC [Compound 10] | 0 (herbicidal effect of not less than 0% by weight and less than 10% by weight) | 0 (herbicidal effect of not less than 0% by weight and less than 10% by weight) | 0 (herbicidal effect of not less than 0% by weight and less than 10% by weight) | 4 (herbicidal effect of not less than 70% by weight and less than 90% by weight) | 4 (herbicidal effect of not less than 70% by weight and less than 90% by weight) | 4 (herbicidal effect of not less than 70% by weight and less than 90% by weight) | 4 (herbicidal effect of not less than 70% by weight and less than 90% by weight) | 5 (herbicidal effect of not less than 90% by weight) | 4 (herbicidal effect of not less than 70% by weight and less than 90% by weight) | 4 (herbicidal effect of not less than 70% by weight and less than 90% by weight) | 4 (herbicidal effect of not less than 70% by weight and less than 90% by weight) | 0 (herbicidal effect of not less than 0% by weight and less than 10% by weight) | 0 (herbicidal effect of not less than 0% by weight and less than 10% by weight) | 3 (herbicidal effect of not less than 50% by weight and less than 70% by weight) | 3 (herbicidal effect of not less than 50% by weight and less than 70% by weight) | 3 (herbicidal effect of not less than 50% by weight and less than 70% by weight) | 3 (herbicidal effect of not less than 50% by weight and less than 70% by weight)
COC=C(Cn1nc(-c2cc(C)ccc2C)cc1C)C(=O)OC [Compound 5] | 0 (herbicidal effect of not less than 0% by weight and less than 10% by weight) | 0 (herbicidal effect of not less than 0% by weight and less than 10% by weight) | 0 (herbicidal effect of not less than 0% by weight and less than 10% by weight) | 4 (herbicidal effect of not less than 70% by weight and less than 90% by weight) | 4 (herbicidal effect of not less than 70% by weight and less than 90% by weight) | 4 (herbicidal effect of not less than 70% by weight and less than 90% by weight) | 5 (herbicidal effect of not less than 90% by weight) | 5 (herbicidal effect of not less than 90% by weight) | 4 (herbicidal effect of not less than 70% by weight and less than 90% by weight) | 4 (herbicidal effect of not less than 70% by weight and less than 90% by weight) | 4 (herbicidal effect of not less than 70% by weight and less than 90% by weight) | 0 (herbicidal effect of not less than 0% by weight and less than 10% by weight) | 0 (herbicidal effect of not less than 0% by weight and less than 10% by weight) | – | 5 (herbicidal effect of not less than 90% by weight) | 3 (herbicidal effect of not less than 50% by weight and less than 70% by weight) | 3 (herbicidal effect of not less than 50% by weight and less than 70% by weight)

— US6809065B2, “Herbicide containing substituted pyrazole derivative as active ingredient” (SDS Biotech K.K., priority 2001, dated 2004)
